Earlier results in PMC2916017 (Journal of biomedical optics, 2009).

Experiments:
αvβ3–positive tumor = conditions: previous work; specific activities 200–500 Ci/mmol
caspase-3 = molecular target: T1, caspase-3 (Homo sapiens, UniProt P42574); conditions: standard substrate, comparison value; no reference given
T1 sequence (P42574 29-175 limits assumed): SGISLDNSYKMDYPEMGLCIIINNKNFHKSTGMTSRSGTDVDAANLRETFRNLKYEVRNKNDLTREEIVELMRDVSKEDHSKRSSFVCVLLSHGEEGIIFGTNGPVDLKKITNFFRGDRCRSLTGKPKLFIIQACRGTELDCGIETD
T1 sequence (P42574 176-277 limits assumed): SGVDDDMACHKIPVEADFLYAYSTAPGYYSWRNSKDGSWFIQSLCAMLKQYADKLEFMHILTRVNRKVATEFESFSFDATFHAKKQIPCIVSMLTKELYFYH

Km (caspase-3) [µM]	kcat (caspase-3) [s⁻¹]	Substance	tumor visualization by small animal PET (αvβ3–positive tumor)
		^64Cu-DOTA-c(RGDyK) (head to tail)	receptor specific tumor accumulation allowed for αvβ3–positive tumor visualization by small animal PET
11		Ac-DEVD-pNA	
9.7	0.75	Ac-DEVD-AMC	
